According to ChEMBL document CHEMBL5104103 (J Med Chem, 2022):

How the values were obtained:
[1] = target: T1, Tyrosine-protein kinase BTK (Homo sapiens, UniProt Q06187); assay: Inhibition of biotinylated-labeled BTK-selective probe binding to BTK in human Ramos assessed as target occupancy pretreated for 1 hr followed by probe addition measured for 18 hrs by AlphaScreen assay; assay type: cell-based
[2] = target: Sodium-dependent dopamine transporter (Homo sapiens) (UniProt Q01959); assay: Displacement of [3H]BTCP from recombinant human dopamine transporter DAT at 10 uM incubated for 120 mins by radiometric scintillation assay relative to control
Sodium-dependent dopamine transporter (Homo sapiens), sequence (Q01959 whole entry): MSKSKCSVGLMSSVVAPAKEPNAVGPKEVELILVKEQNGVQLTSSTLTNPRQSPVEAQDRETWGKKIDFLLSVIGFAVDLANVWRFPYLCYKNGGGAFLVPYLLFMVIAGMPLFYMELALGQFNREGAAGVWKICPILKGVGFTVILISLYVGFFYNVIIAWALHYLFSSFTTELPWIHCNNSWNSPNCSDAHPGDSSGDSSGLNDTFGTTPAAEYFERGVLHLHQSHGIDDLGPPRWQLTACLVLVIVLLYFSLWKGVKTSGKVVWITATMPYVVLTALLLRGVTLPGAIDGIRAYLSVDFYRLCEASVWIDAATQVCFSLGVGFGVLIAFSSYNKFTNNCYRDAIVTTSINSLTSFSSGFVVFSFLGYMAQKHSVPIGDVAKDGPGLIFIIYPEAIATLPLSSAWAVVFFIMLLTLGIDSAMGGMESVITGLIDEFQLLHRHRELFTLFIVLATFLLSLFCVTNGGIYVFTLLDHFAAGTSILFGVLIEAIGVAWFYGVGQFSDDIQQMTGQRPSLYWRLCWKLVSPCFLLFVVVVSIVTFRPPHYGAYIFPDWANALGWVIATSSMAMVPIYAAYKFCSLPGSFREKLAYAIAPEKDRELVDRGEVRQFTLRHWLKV

[3] = target: T2, Tyrosine-protein kinase TXK (Homo sapiens) (UniProt P42681); assay: Displacement of competitive tracer from RLK (unknown origin) assessed as target occupancy at […] preincubated for 15 mins measured for 1 hr relative to control; settings: dose 1.5 µM
T2 sequence (whole entry): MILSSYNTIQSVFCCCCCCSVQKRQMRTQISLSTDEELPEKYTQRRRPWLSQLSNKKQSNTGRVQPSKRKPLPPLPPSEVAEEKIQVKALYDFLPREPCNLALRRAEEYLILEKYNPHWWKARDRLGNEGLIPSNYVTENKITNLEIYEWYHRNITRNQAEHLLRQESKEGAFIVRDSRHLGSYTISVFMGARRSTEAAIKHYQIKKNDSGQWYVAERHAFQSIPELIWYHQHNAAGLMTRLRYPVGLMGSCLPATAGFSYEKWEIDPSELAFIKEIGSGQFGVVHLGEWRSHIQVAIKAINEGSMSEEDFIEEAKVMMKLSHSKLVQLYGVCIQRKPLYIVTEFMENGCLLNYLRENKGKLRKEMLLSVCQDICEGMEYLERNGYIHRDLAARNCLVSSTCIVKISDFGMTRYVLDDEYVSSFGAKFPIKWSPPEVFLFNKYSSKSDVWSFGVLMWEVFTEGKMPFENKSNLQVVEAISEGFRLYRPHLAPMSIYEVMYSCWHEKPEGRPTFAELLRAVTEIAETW

[4] = Inhibition of NFAT activation in anti-CD3/anti-CD28-stimulated human Jurkat T cells; assay type: cell-based
[5] = target: T1, Tyrosine-protein kinase BTK; assay: Inhibition of BTK (unknown origin) using peptide substrate in presence of ATP by caliper electrophoresis method
[6] = Clearance in rat liver S9 fraction assessed as measuring per mg protein; assay type: ADME, subcellular; settings: read-out: CLH
[7] = target: T3, Cytoplasmic tyrosine-protein kinase BMX (Homo sapiens, UniProt P51813); assay: Inhibition of BMX (unknown origin) using peptide substrate in presence of ATP by caliper electrophoresis method
T3 sequence (P51813 whole entry): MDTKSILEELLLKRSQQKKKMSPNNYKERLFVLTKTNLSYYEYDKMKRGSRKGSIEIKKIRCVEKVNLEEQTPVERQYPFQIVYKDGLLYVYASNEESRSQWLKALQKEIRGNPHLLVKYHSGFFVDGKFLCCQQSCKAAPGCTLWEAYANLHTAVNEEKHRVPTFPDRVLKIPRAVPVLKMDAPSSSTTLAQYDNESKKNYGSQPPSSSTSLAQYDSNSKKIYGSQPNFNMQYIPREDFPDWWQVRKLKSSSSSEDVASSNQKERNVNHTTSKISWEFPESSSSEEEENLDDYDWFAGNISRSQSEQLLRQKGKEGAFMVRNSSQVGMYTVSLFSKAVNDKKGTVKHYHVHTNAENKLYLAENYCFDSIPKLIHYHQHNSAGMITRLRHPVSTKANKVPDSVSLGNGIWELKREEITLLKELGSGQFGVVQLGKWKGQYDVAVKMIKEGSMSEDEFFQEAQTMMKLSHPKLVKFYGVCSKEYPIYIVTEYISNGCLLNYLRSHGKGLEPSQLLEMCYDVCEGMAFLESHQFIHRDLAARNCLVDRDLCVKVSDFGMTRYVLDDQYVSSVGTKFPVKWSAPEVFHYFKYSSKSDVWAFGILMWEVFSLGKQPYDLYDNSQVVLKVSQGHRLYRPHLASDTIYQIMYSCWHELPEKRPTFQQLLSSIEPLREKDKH

[8] = Inhibition of anti-IgM-stimulated CD20+ B cell activation in human whole blood assessed as measuring CD69 expression level pretreated for 1 hr followed by anti-IgM stimulation measured after 18 hrs by flow cytometry
[9] = target: T4, Tyrosine-protein kinase ITK/TSK (Homo sapiens, UniProt Q08881); assay: Inhibition of ITK (unknown origin) using peptide substrate in presence of ATP by caliper electrophoresis method
T4 sequence (Q08881 whole entry): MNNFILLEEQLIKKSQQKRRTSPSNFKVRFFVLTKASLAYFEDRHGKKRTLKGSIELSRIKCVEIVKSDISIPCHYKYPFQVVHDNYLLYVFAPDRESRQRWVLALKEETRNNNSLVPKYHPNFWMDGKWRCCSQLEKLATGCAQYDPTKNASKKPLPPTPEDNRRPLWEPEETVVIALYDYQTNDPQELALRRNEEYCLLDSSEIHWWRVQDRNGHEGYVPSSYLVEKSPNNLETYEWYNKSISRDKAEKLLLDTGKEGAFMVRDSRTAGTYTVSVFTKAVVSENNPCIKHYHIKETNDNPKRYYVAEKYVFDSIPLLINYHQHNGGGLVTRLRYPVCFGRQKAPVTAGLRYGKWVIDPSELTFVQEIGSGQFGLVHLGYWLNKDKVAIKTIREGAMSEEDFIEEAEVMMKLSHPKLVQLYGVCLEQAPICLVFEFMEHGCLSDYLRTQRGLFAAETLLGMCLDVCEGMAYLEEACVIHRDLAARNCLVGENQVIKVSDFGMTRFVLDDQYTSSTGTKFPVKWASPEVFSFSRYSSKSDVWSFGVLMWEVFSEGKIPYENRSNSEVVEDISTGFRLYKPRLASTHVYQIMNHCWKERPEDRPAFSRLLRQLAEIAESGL

[10] = target: T2, Tyrosine-protein kinase TXK (Homo sapiens); assay: Displacement of competitive tracer from RLK (unknown origin) assessed as target occupancy at […] preincubated for 15 mins measured for 6 hrs relative to control; settings: dose 1.5 µM
[11] = Permeability across apical to basolateral membrane in human Caco-2 cells; assay type: ADME, cell-based; settings: read-out: permeability
[12] = Permeability across basolateral to apical membrane in human Caco-2 cells; assay type: ADME, cell-based; settings: read-out: permeability
[13] = target: Receptor tyrosine-protein kinase erbB-4 (Homo sapiens, UniProt Q15303); assay: Inhibition of ERBB4 (unknown origin) using peptide substrate in presence of ATP by caliper electrophoresis method
Receptor tyrosine-protein kinase erbB-4, sequence (Q15303 whole entry): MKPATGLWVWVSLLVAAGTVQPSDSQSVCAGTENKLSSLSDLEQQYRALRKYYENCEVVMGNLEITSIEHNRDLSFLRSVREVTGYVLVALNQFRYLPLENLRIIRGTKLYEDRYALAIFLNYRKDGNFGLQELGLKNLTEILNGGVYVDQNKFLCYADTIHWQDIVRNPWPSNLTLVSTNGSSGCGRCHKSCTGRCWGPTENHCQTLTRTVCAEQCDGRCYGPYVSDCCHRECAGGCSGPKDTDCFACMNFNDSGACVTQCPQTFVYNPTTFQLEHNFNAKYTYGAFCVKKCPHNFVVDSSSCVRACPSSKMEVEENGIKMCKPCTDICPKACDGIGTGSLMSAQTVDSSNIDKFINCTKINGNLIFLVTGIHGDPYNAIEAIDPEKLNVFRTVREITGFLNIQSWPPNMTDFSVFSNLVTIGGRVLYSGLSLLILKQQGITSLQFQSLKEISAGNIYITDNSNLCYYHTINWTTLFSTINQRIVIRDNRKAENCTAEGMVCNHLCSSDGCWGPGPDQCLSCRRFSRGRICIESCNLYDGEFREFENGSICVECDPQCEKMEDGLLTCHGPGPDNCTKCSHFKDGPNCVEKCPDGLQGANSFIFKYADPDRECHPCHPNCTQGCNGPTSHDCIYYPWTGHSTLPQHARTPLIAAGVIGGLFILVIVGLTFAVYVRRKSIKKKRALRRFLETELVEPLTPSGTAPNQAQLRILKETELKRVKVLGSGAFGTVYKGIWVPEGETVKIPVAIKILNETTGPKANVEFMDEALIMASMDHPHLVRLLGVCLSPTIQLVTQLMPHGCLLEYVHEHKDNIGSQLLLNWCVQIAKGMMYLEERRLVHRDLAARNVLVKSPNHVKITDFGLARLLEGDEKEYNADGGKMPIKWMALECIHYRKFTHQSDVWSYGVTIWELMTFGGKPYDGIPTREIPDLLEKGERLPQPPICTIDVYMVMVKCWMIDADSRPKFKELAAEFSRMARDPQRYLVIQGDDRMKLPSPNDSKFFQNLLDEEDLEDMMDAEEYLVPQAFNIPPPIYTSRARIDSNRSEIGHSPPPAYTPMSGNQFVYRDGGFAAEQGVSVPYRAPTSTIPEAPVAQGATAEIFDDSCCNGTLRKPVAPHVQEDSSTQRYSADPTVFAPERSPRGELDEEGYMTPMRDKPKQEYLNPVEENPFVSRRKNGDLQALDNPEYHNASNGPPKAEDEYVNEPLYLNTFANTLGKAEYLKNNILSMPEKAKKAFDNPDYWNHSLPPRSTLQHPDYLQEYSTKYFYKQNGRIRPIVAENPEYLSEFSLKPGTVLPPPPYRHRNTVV

[14] = Clearance in rat at 2 mg/kg, iv; assay type: ADME, organism-based; settings: in vivo

T1 sequence (Q06187 whole entry): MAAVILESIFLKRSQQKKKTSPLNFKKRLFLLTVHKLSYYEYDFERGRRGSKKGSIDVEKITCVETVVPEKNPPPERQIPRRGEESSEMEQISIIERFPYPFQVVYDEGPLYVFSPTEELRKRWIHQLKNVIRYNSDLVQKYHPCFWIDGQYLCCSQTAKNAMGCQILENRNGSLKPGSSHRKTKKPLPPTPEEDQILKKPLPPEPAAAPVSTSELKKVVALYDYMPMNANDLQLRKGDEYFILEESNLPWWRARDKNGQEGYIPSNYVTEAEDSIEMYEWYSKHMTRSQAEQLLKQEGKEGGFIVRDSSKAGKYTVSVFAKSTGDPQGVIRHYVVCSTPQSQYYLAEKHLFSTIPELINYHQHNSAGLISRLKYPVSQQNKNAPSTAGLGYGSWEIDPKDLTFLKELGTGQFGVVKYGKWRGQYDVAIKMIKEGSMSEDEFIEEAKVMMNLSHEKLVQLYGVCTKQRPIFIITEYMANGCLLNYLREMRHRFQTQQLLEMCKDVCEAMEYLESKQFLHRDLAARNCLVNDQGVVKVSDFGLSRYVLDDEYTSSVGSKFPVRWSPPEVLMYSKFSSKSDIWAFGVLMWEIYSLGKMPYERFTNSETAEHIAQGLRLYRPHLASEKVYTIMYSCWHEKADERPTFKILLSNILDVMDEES

IC50 [1] [nM]	inhibition [2] [%]	Activity [3] [%]	IC50 [4] [nM]	IC50 [5] [nM]	microsomal CLint [6] [µL/min/mg]	IC50 [7] [nM]	IC50 [8] [nM]	IC50 [9] [nM]	Activity [10] [%]	Papp A→B [11] [×10⁻⁶ cm/s]	Papp B→A [12] [×10⁻⁶ cm/s]	IC50 [13] [nM]	clearance [14] [mL/min/kg]	Structure (SMILES)
30.1	> 50	88	2100	1.8	54	1.8	216	303	86	0.5	0.6	22		CC(C)(C)/C=C(\C#N)C(=O)N1CCC[C@@H](n2nc(-c3ccc(Oc4ccccc4)cc3F)c3c(N)ncnc32)C1 [ATUZABRUTINIB]
						0.6	117	110		1	13.5	41	119	CN1CCN(C(C)(C)/C=C(\C#N)C(=O)N2CCC[C@@H](n3nc(-c4ccc(Oc5ccccc5)cc4F)c4c(N)ncnc43)C2)CC1
35.9				72		10.1	149	> 5000		6.8	16.5	177	120	CC(C)(/C=C(/C#N)C(=O)N1CCC[C@@H]1Cn1nc(-c2ccc(Oc3ccccc3)cc2F)c2c(N)ncnc21)N1CCOCC1
